Data published in article PMC3124589 (Biochimica et biophysica acta, 2011).
“Also recorded” adds a separate entry of the source. Where two headings read alike, the source gives them in different places.

Key:
mtDAPDC [1] = biological target: T1, mtDAPDC (Mycobacterium tuberculosis, UniProt P9WIU7); experiment: Steady-state coupled carbon dioxide assay, mtDAPDC; type: biochemical; conditions: for kcat / Km: errors in parentheses; for Km: meso-DAP value corrected for the 50% D,L-DAP present
mtDAPDC [2] = biological target: T1, mtDAPDC; experiment: Inhibition assay for mtDAPDC, coupled carbon dioxide assay; type: biochemical
mtDAPDC [3] = biological target: T1, mtDAPDC; experiment: HPLC assay for reaction of mtDAPDC with alternate substrates; type: biochemical; conditions: reaction 25 °C, 12–16 hours; OPA derivatization
yeast ODC = conditions: read-out: concentration necessary for 50% inhibition; cited from earlier work
S. cerevisiae ODC = S. cerevisiae ODC (Saccharomyces cerevisiae, UniProt P08432); experiment: biochemical
Chain of S. cerevisiae ODC (P08432 whole entry): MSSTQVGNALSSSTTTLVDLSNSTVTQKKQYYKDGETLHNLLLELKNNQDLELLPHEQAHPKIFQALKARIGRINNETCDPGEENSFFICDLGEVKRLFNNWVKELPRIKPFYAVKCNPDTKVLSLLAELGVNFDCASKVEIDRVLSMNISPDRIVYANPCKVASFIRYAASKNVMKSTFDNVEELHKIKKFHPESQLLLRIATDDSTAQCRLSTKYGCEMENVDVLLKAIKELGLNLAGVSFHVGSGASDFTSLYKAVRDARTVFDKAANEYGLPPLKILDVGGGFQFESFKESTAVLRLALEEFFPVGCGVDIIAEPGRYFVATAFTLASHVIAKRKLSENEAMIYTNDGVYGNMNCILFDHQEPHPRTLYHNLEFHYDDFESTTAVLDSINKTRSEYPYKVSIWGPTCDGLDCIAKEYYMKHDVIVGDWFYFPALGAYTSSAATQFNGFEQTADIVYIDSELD

[4] = D,L-DAP held at Km (400 μM), competitive inhibition assumed (eq 1)

T1 sequence (P9WIU7 whole entry, looked up): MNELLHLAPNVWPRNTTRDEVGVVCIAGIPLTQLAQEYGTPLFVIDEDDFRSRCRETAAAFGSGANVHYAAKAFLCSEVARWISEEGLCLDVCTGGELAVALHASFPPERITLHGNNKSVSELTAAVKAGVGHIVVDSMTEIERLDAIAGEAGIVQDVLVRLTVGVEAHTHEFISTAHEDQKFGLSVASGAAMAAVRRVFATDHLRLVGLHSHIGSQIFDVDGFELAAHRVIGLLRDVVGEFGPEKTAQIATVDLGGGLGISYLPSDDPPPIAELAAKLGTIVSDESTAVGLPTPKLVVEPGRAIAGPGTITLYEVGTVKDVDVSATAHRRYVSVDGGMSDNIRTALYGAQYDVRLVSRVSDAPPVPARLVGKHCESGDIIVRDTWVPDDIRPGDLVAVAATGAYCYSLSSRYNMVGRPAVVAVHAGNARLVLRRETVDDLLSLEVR

SMILES | kcat (mtDAPDC [1]) | Km (mtDAPDC [1]) | decarboxylation detected by HPLC (mtDAPDC [3]) | Ki (mtDAPDC [2]; [4]) | also measured
N[C@H](CCC[C@@H](N)C(=O)O)C(=O)O [D,D-DAP] | 1.8 (0.3) s^−1 | 17 mM | decarboxylated |  | kcat less than with the natural substrate (mtDAPDC [1]; relative to D,L-DAP): 4 fold; kcat/KM lower than D,L-DAP (mtDAPDC [1]; relative to D,L-DAP): ~ 100 fold; inhibition of the D,L-DAP reaction (mtDAPDC [2]; at concentrations of 6 mM (data not shown)): no detectable inhibition
N[C@@H](CCC[C@H](N)C(=O)O)C(=O)O [D,L-DAP, D,L-diaminopimelate] | 7.1 (0.1) s^−1 | 0.43 mM |  |  | 
NCCCC[C@@H](N)C(=O)O [D-lysine] |  |  | decarboxylated | 26000 µM | 
NC(CCCC(N)C(=O)O)C(=O)O [L,L-DAP] |  |  | no detectable amounts of their decarboxylation products; also recorded: not decarboxylated | 1600 µM | binding weaker than D,L-DAP (mtDAPDC [2]; Ki compared with Km of D,L-DAP): ~ 4 fold
NCCCC[C@H](N)C(=O)O [L-lysine] |  |  | no detectable amounts of their decarboxylation products |  | Ki (mtDAPDC [2]): 1800 µM
NCCCCN [putrescine] |  |  |  |  | IC50 (yeast ODC): 100 µM; Ki (S. cerevisiae ODC): 250 ± 45 µM
